Data: patent US20100015174A1, “METHOD TO CONTROL DENGUE VIRUSES IN HUMANS BY PICOLINIC ACID AND DERIVATIVES THEREOF” (priority 2008, published 2010)
≈ marks a conversion by molar mass, not a printed value. Like-named read-outs stand apart in the source and are kept apart here.

How the values were obtained:
J2 retrovirus = details: GG2EE transformed macrophages; cited from earlier work
HEL cells = experiment: Toxicity to HEL cells
VZV Ellen strain = experiment: VZV virus yield reduction assay in HEL-299 cells (real-time PCR); format: cell-based, Varicella-Zoster Virus; details: for Total VZV DNA copies (mean) / Total VZV DNA, % of control: 3 days
Ava.5 cell line = experiment: Cytotoxicity by OD in HCV replicon cells; format: cell-based
Experimental: (§1) Here we determine the effects of Picolinic acid and Fusaric Acid on HCV replicon cell lines. The HCV replicons (qRTCPCR/iCycler) were contained in the Ava.5 cell line tested. Normalization by OD and serial dilutions were done in the untreated cell line. The experimental design was as follows: cells were grown in 12 well cell culture plates; the compounds interaction was done for 24 hours; at extraction, cell confluence was 75%; and RNA was extracted using Qiagen Rneasy extraction kit.

HCV replicon = HCV replicon (qRTCPCR/iCycler) in Ava.5 cell line; format: cell-based, Human Hepatitis C Virus; details: Hepatitis C virus, Ava5, 24 h, read-out: inhibition of HCV replicon
Experimental: as §1

Huh7B/Sindbis cells = experiment: Cytotoxicity by OD in Sindbis replicon cells; format: cell-based; details: concentrations tested
Experimental: as §1, with “Sindbis” for “HCV”, “in Huh7B/Sindbis cells.” for “cell lines.”, “replicons” for “replicons (qRTCPCR/iCycler)”, “studied by qRTCPCR/iCycler.” for “contained in the Ava.5 cell line tested.”

BVDV Trangie strain = experiment: BVDV virus yield reduction in MDBK cells (immunoperoxidase staining); format: cell-based, Bovine Viral Diarrhea Virus; details: 3 days
Experimental: BVDV Trangie strain, a well characterized non-cytopathic Australian isolate, was used in this study. The virus was cultured in MDBK cells (ATCC), and titred by immunoperoxidase staining.
80% confluent MDBK cells were infected with BVDV at a moi of 0.01 at 37° C. for 1 h. After viral inoculums was removed, Infected cells were washed with PBS and then incubated with culture medium containing PA at concentrations of 0, 10, 100, 250, 500, and 1000 ug/mL or FA at concentrations of 0, 1, 10, 30, 60, and 100 ug/mL at 37° C. for 3 days. The culture medium was then collected and stored at −70° C. The cells were harvested by one frozen/thawed cycle and centrifugation to pellet debris. The supernatant was collected and stored at −70° C.
PA of FA-treated cultures were 10-fold serially diluted, 50 uL of each dilution was added to 80% confluent MDBK cells in a 96-well plate, and incubated at 37° C. for 1 h. The innoculum was removed by washing with PBS once. The Infected cells were covered with 200 uL of 0.5% methylcellulose in culture medium and incubated at 37° C. for 2 days. After washing with PBS, the cells were fixed with 200 uL of 5% formalin in PBS for 10 min at room temperature. Subsequently, they were washed with 0.05% Tween −20/dH2O three times. Then, the cells were incubated with 50 uL mixture of three monoclonal antibodies against BVDV NS3 for 80 min at 37° C. in a humidified box. The cells were then washed as above and incubated with 50 uL of rabbit anti-mouse IgG Peroxidase-conjugate (DAKO) diluted 1:200 in 1% gelatin/PBS for 90 min at 37° C. in a humidified box. After final washes as described above, 200 uL of 3-amino-9-ethyl-carbazole was added to each well and incubated at room temperature for 30 min until the cells were stained.
The BVDV closely resembles HCV persistent Infection. After Infection with BVDV cultured MBDK were treated with different concentrations of PA or FA for 3 days. The antiviral effect was determined by virus yield reduction assays (i.e. staining using monoclonal antibodies against NS3, or titration of intracellular and extracellular virus by immunoperoxidase staining.

[1] = test system: certain lymphomas, and viral diseases such as Herpes simplex labialis, herpes zoster and papilloma viruses; experiment: Systemic picolinic acid capsules in humans; format: in vivo; details: 00 gelatin capsules at 500 mg per capsule
Excerpt: A systemic preparation of picolinic acid, its derivatives or analogs, containing approximately 1% to 100% active ingredient, may be administered orally, intravenously, intramuscularly or by any acceptable route for the treatment of viral systemic infections such as Dengue. […] Likewise, an injectable form may be prepared.

## O=C(O)c1ccccn1 [PA, picolinic acid]
J2 retrovirus
  J2 retrovirus expression: not affected
HEL cells; 500 ug/mL
  toxicity to HEL cells: no significant toxicity
VZV Ellen strain; Human alphaherpesvirus 3, 50% reduction of total VZV DNA copies, HEL-299 cells, read-out: EC50 against VZV replication
  EC50: ~89 µg/mL (≈ 723 µM)
VZV Ellen strain; Human alphaherpesvirus 3, total VZV DNA copies, HEL-299 cells, read-out: EC90 against VZV replication
  EC90: ~505 µg/mL (≈ 4100 µM)
Ava.5 cell line; 250 ug/mL
  overt cytotoxicity by OD: no overt cytotoxicity
HCV replicon
  inhibition at 250 µg/mL: ~60%
Huh7B/Sindbis cells
  overt cytotoxicity by OD: no overt cytotoxicity
BVDV Trangie strain; 250 ug/mL
  reduction of BVDV virus yield: 76%
BVDV Trangie strain; Bovine viral diarrhea virus isolates and strains, 72 h, MDBK cells, read-out: EC50 against BVDV
  EC50: 60 µg/mL (≈ 487 µM)
BVDV Trangie strain; MDBK cells
  activity against BVDV: active
BVDV Trangie strain; PA 10 μg/ml
  BVDV virus yield: 3.2 × 10^5 (pfu/ml)
  BVDV virus yield, % of control: 78.0 % of control
BVDV Trangie strain; PA 100 μg/ml
  BVDV virus yield: 2.5 × 10^5 (pfu/ml)
  BVDV virus yield, % of control: 61.0 % of control
BVDV Trangie strain; PA 250 μg/ml
  BVDV virus yield: 1.0 × 10^5 (pfu/ml)
  BVDV virus yield, % of control: 24.4 % of control
BVDV Trangie strain; PA 500 μg/ml
  BVDV virus yield: 0.35 × 10^5 (pfu/ml)
  BVDV virus yield, % of control: 8.5 % of control
[1]
  control of certain lymphomas and viral diseases in humans: effective

## CCCCc1ccc(C(=O)O)nc1 [FA, fusaric acid]
HEL cells; 60 ug/mL
  toxicity to HEL cells: no significant toxicity
VZV Ellen strain; FA 1 μg/ml
  Total VZV DNA copies (mean): 753340 copies
  Total VZV DNA, % of control: 77.7 % of control
VZV Ellen strain; FA 10 μg/ml
  Total VZV DNA copies (mean): 685520 copies
  Total VZV DNA, % of control: 70.7 % of control
VZV Ellen strain; FA 30 μg/ml
  Total VZV DNA copies (mean): 103405 copies
  Total VZV DNA, % of control: 10.7 % of control
VZV Ellen strain; FA 60 μg/ml
  Total VZV DNA copies (mean): 66230 copies
  Total VZV DNA, % of control: 6.8 % of control
VZV Ellen strain; Human alphaherpesvirus 3, HEL 299, read-out: EC50 against VZV replication, 50% reduction of total VZV DNA copies, HEL-299 cells
  EC50: ~14 µg/mL (≈ 78.1 µM)
VZV Ellen strain; Human alphaherpesvirus 3, HEL 299, read-out: EC90 against VZV replication, total VZV DNA copies, HEL-299 cells
  EC90: ~41 µg/mL (≈ 229 µM)
Ava.5 cell line; 100 ug/mL
  overt cytotoxicity by OD: no overt cytotoxicity
HCV replicon
  inhibition at 100 µg/mL: ~60%
Huh7B/Sindbis cells
  overt cytotoxicity by OD: No overt cytotoxicity
BVDV Trangie strain; FA 1 μg/ml
  BVDV virus yield: 2.4 × 10^5 (pfu/ml)
  BVDV virus yield, % of control: 80.0 % of control
BVDV Trangie strain; FA 10 μg/ml
  BVDV virus yield: 1.8 × 10^5 (pfu/ml)
  BVDV virus yield, % of control: 60.0 % of control
BVDV Trangie strain; FA 30 μg/ml
  BVDV virus yield: 2.5 × 10^5 (pfu/ml)
  BVDV virus yield, % of control: 83.3 % of control
BVDV Trangie strain; FA 60 μg/ml
  BVDV virus yield: 1.5 × 10^5 (pfu/ml)
  BVDV virus yield, % of control: 50.0 % of control
BVDV Trangie strain; MDBK cells
  activity against BVDV: active
